According to patent US20140005163A1 (NOVARTIS AG, priority 2010, published 2014):
Values after ≈ are worked out from the molar mass of the structure shown. Where two headings read alike, the source gives them in different places.

Assays:
[1] = tested on: PKB Ser473 phosphorylation in Rat1-myr-HA-p110 beta cells; assay: Reverse protein array assay, PKB Ser473 phosphorylation in Rat1-myr-p110 beta cells; assay type: cell-based; conditions: 0.5 h, pAkt Ser473, 30 minutes incubation, read-out: p-PKB IC50
In short: (§1)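 Cells: Rat1-myr-HA-p110 alpha/beta/delta, seeded ≥20 h. Lysis on ice 10 min; reverse-phase protein array, 4 lysate dilutions; fluorescence read, relative intensity.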

[2] = tested on: PKB Ser473 phosphorylation in Rat1-myr-HA-p110 delta cells; assay: Reverse protein array assay, PKB Ser473 phosphorylation in Rat1-myr-p110 delta cells; assay type: cell-based; conditions: read-out: p-PKB IC50
In short: as §1

PI3K alpha = target: T1, PI3K alpha (Homo sapiens, UniProt P42336); assay: PI3K alpha kinase assay (Kinase-Glo luminescence); assay type: biochemical
T1 construct: p85(iSH2) fusion partner (see partner chain) (N); His tag (C); made in house; host or cells: baculovirus; Tn5 (Trichoplusia ni) or TiniPro insect cells
In short: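 Read-out: Kinase-Glo luminescence of ATP left after 60 min at room temperature. Conditions: 10 nM PI3Kα (EMV B1075), 1 μM ATP, 10 μg/mL PI substrate, Tris pH 7.5 buffer with MgCl2, NaCl, CHAPS and DTT. IC50s fitted with a four-parameter logistic model.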

[3] = tested on: PKB Ser473 phosphorylation in Rat1-myr-HA-p110 alpha cells; assay: Reverse protein array assay, PKB Ser473 phosphorylation in Rat1-myr-p110 alpha cells; assay type: cell-based; conditions: 0.5 h, pAkt Ser473, 30 minutes compound incubation, read-out: p-PKB IC50
In short: as §1

Solubility at pH 6.8 = assay type: physicochemical
In short: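 Solubility was measured at pH 6.8 following the cited Zhou et al. (2007) procedure.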

[4] = pH 6.8, aqueous buffer, thermodynamic from solid, read-out: solubility

T1 sequence (P42336 with tags, fused parts or gaps limits assumed): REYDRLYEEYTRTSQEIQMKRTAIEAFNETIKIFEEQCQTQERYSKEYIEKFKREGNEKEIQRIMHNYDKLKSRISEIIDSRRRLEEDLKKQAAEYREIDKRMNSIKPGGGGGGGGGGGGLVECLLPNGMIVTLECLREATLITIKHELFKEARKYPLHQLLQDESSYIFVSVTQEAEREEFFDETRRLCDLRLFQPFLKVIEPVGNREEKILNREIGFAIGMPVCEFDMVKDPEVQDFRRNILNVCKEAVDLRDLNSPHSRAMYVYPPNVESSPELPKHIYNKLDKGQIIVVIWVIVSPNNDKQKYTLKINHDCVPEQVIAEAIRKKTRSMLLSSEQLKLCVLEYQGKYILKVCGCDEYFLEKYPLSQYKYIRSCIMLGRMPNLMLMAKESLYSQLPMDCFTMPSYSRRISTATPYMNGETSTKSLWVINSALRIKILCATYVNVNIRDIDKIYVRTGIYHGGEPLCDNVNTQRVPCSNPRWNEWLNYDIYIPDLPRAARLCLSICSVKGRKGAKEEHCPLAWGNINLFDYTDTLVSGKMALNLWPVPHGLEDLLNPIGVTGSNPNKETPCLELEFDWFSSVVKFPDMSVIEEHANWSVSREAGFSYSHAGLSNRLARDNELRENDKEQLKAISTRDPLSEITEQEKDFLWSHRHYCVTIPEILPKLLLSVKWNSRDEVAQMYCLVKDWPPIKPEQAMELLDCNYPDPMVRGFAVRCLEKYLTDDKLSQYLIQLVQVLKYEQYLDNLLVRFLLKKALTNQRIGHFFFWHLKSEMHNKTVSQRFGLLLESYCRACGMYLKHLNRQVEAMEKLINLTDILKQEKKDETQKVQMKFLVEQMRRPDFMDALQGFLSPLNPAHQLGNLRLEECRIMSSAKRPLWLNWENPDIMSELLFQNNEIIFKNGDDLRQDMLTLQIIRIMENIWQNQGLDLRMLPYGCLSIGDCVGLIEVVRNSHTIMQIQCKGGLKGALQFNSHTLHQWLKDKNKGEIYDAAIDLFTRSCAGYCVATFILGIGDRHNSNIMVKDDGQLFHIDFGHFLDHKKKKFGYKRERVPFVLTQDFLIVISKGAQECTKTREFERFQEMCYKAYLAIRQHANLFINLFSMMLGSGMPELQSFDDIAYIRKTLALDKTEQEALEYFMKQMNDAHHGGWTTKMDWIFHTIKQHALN

| IC50 [1] | IC50 [2] | IC50 (PI3K alpha) | IC50 [3] | solubility (Solubility at pH 6.8; pH 6.8) | solubility (Solubility at pH 6.8; [4]) | Structure (SMILES) |
| --- | --- | --- | --- | --- | --- | --- |
| 18 nM | 23 nM | 9 nM | 10 nM | 2 µg/mL (≈ 4.57 µM) | – | Cc1nn(C)cc1-n1c(=O)n(C)c2cnc3ccc(-c4cncc(C(C)(C)C#N)c4)cc3c21 [Example 220.1, 2-{5-[1-(1,3-Dimethyl-1H-pyrazol-4-yl)-3-methyl-2-oxo-2,3-dihydro-1H-imidazo[4,5-c]quinolin-8-yl]-pyridin-3-yl}-2-methyl-propionitrile] |
| < 5 nM | 10 nM | 11 nM | < 5 nM | – | 30 µg/mL (≈ 75.1 µM) | CNc1ccc(-c2ccc3ncc4c(c3c2)n(-c2cn(C)nc2C)c(=O)n4C)cn1 [Example 118.2, 1-(1,3-Dimethyl-1H-pyrazol-4-yl)-3-methyl-8-(6-methylamino-pyridin-3-yl)-1,3-dihydro-imidazo[4,5-c]quinolin-2-one] |
| 72 nM | 91 nM | 33 nM | 35 nM | – | 4 µg/mL (≈ 8.48 µM) | CCNc1ncc(-c2ccc3ncc4c(c3c2)n(-c2cn(C)nc2C)c(=O)n4C)cc1COCC [Example 167, 1-(1,3-Dimethyl-1H-pyrazol-4-yl)-8-(5-ethoxymethyl-6-ethylamino-pyridin-3-yl)-3-methyl-1,3-dihydro-imidazo[4,5-c]quinolin-2-one] |
| 7 nM | 16 nM | 48 nM | 1 nM | 2 µg/mL (≈ 4.58 µM) | – | Cc1nn(C)cc1-n1c(=O)n(C)c2cnc3ccc(-c4ccc(-n5cccn5)nc4)cc3c21 [Example 79, 1-(1,3-Dimethyl-1H-pyrazol-4-yl)-3-methyl-8-(6-pyrazol-1-yl-pyridin-3-yl)-1,3-dihydro-imidazo[4,5-c]quinolin-2-one] |
| 118 nM | 363 nM | 76 nM | 26 nM | – | 164 µg/mL (≈ 361 µM) | CCN(C)C(=O)Cn1cc(-n2c(=O)n(C)c3cnc4ccc(-c5ccccc5)cc4c32)c(C)n1 [Example 135, N-Ethyl-N-methyl-2-[3-methyl-4-(3-methyl-2-oxo-8-phenyl-2,3-dihydro-imidazo[4,5-c]quinolin-1-yl)-pyrazol-1-yl]-acetamide] |
| 26 nM | 23 nM | < 3 nM | 13 nM | – | 22 µg/mL (≈ 51 µM) | COc1ncc(-c2ccc3ncc4c(c3c2)n(-c2cn(C)nc2C)c(=O)n4C)c(OC)n1 [Example 234.2, 8-(2,4-Dimethoxy-pyrimidin-5-yl)-1-(1,3-dimethyl-1H-pyrazol-4-yl)-3-methyl-1,3-dihydro-imidazo[4,5-c]quinolin-2-one] |
| 99 nM | 145 nM | 138 nM | 51 nM | – | 17 µg/mL (≈ 40 µM) | COc1ncc(-c2ccc3ncc4c(c3c2)n(-c2cn(C)nc2C)c(=O)n4C)cc1C#N [Example 132, 5-[1-(1,3-Dimethyl-1H-pyrazol-4-yl)-3-methyl-2-oxo-2,3-dihydro-1H-imidazo[4,5-c]quinolin-8-yl]-2-methoxy-nicotinonitrile] |
| 30 nM | 43 nM | 6 nM | 21 nM | – | > 428 µg/mL | Cc1nn(C)cc1-n1c(=O)n(C)c2cnc3ccc(-c4cncc(OC(C)C)c4)cc3c21 [Example 58.1, 1-(1,3-Dimethyl-1H-pyrazol-4-yl)-8-(5-isopropoxy-pyridin-3-yl)-3-methyl-1,3-dihydro-imidazo[4,5-c]quinolin-2-one] |
| 160 nM | 101 nM | 19 nM | 8 nM | – | 150 µg/mL (≈ 348 µM) | COc1cc(-c2ccc3ncc4c(c3c2)n(-c2cn(C)nc2C)c(=O)n4C)cnc1CO [Example 193, 1-(1,3-Dimethyl-1H-pyrazol-4-yl)-8-(6-hydroxymethyl-5-methoxy-pyridin-3-yl)-3-methyl-1,3-dihydro-imidazo[4,5-c]quinolin-2-one] |
| 10 nM | 46 nM | 44 nM | 17 nM | – | > 502 µg/mL | CCNc1cc(-c2ccc3ncc4c(c3c2)n(-c2c(C)nn(CCOC)c2C)c(=O)n4C)cnc1OC [Example 90.2, 8-(5-Ethylamino-6-methoxy-pyridin-3-yl)-1-[1-(2-methoxy-ethyl)-3,5-dimethyl-1H-pyrazol-4-yl]-3-methyl-1,3-dihydro-imidazo[4,5-c]quinolin-2-one] |
| 56 nM | 280 nM | 20 nM | 20 nM | – | 8 µg/mL (≈ 18.8 µM) | Cc1nn(C)cc1-n1c(=O)n(C)c2cnc3ccc(-c4cnc5c(c4)ncn5C)cc3c21 [Example 74, 1-(1,3-Dimethyl-1H-pyrazol-4-yl)-3-methyl-8-(3-methyl-3H-imidazo[4,5-b]pyridin-6-yl)-1,3-dihydro-imidazo[4,5-c]quinolin-2-one] |
| 41 nM | 105 nM | 29 nM | 46 nM | 2 µg/mL (≈ 4.67 µM) | – | COc1ccc(-c2ccc3ncc4c(c3c2)n(-c2cn(C(C)C)nc2C)c(=O)n4C)cn1 [Example 2.8, 1-(1-Isopropyl-3-methyl-1H-pyrazol-4-yl)-8-(6-methoxy-pyridin-3-yl)-3-methyl-1,3-dihydro-imidazo[4,5-c]quinolin-2-one] |
